Reference: patent US20250195670A1, “METFORMIN NANOFORMULATIONS AND METHODS OF USE THEREOF” (priority 2022, published 2025)

Columns and labels:
U87MG cells = assay: U87MG cell growth (optical density); format: cell-based; settings: Homo sapiens, U-87 MG
Method: FIGS. 2A-2D provide graphs of U87MG growth at the indicated concentrations of metformin (FIG. 2A), PAMAM-OH (FIG. 2B), PAMAM-OH and metformin (FIG. 2C), and P4-MET (FIG. 2D).
The ability of the dendrimers was tested for their ability to deliver metformin to U87MG cells, a human glioma cell line sensitive to metformin. Specifically, U87MG cells were exposed to metformin, PAMAM-OH, PAMAM-OH with metformin, or P4-MET.

Ln229 cells = assay: Ln229 cell growth (optical density); format: cell-based; settings: Homo sapiens, LN-229
Method: FIGS. 3A-3D provide graphs of Ln229 growth at the indicated concentrations of metformin (FIG. 3A), PAMAM-OH (FIG. 3B), PAMAM-OH and metformin (FIG. 3C), and P4-MET (FIG. 3D).
The ability of the dendrimers was also tested for their ability to deliver metformin to Ln229 cells, a human glioblastoma cell line sensitive to metformin. Specifically, Ln229 cells were exposed to metformin, PAMAM-OH, PAMAM-OH with metformin, or P4-MET.

MGPP3 cells = assay: MGPP3 cell growth (optical density); format: cell-based; settings: Mus musculus
Method: FIGS. 4A-4D provide graphs of MGPP3 growth at the indicated concentrations of metformin (FIG. 4A), PAMAM-OH (FIG. 4B), PAMAM-OH and metformin (FIG. 4C), and P4-MET (FIG. 4D).
The ability of the dendrimers was also tested for their ability to deliver metformin to MGPP3 cells, a mouse glioblastoma cell line sensitive to metformin. Specifically, MGPP3 cells were exposed to metformin, PAMAM-OH, PAMAM-OH with metformin, or P4-MET.

[1] = test system: bone marrow-derived macrophages (BMDM); assay: BMDM growth (optical density); format: cell-based; settings: Mus musculus; BMDM cells, 72 hours
Method: FIGS. 5A-5D provide graphs of bone marrow-derived macrophages (BMDM) growth at the indicated concentrations of metformin (FIG. 5A), PAMAM-OH (FIG. 5B), PAMAM-OH and metformin (FIG. 5C), and P4-MET (FIG. 5D).
The ability of the dendrimers was also tested for their ability to deliver metformin to bone marrow-derived macrophages (BMDM). Specifically, BMDM cells were exposed to metformin, PAMAM-OH, PAMAM-OH with metformin, or P4-MET for 72 hours.

UNKPC cells = assay: UNKPC cell growth (optical density); format: cell-based
Method: The ability of the dendrimers was also tested for their ability to deliver metformin to UNKPC cells, a pancreatic cancer cell line. Specifically, […] were exposed to metformin, PAMAM-OH, or P4-MET.

Panc-1 cells = assay: Panc-1 cell growth (optical density); format: cell-based; settings: Homo sapiens
Method: The ability of the dendrimers was also tested for their ability to deliver metformin to Panc-1 cells, a human pancreatic cancer cell line. Specifically, Panc-1 cells were exposed to metformin, PAMAM-OH, and P4-MET.

[2] = oral metformin; cited from earlier work
[3] = in vivo; cited from earlier work
cell cultures = settings: cited from earlier work

IC50 (U87MG cells): 14.4 mM | IC50 (Panc-1 cells): 5.24 mM
SMILES: CN(C)C(=N)NC(=N)N [metformin, 1,1-dimethylbiguanide]
IC50 (Ln229 cells): 0.99 mM | IC50 (MGPP3 cells): 12.5 mM | IC50 [1]: 3.53 mM | IC50 (UNKPC cells): 1.64 mM | pharmacological concentrations in patients [2]: less than 50 μM | gastrointestinal-related side effects, share of patients [3]: 20-30% | typical effective concentration in cell cultures (cell cultures): in the mM range
